According to patent US20100210564A1, “DRUG OR FOOD CONTAINING A PEPTIDE” (Kyoto University, priority 2009, published 2010):
“Also recorded” adds a separate entry of the source.

How the values were obtained:
mice [1] = assay: Elevated plus-maze test, anxiolytic effects; assay type: in vivo, mouse; conditions: for Minimum Effective Dose (mg/kg, i.p.): elevated plus-maze, ( ) = showed tendency, — = no anxiolytic effects
Description: In the present invention, the anxiolytic effects can be evaluated by the elevated plus-maze test, developed and widely used as a method for evaluating anxiety-related behaviors to screen anxiolytic drugs (FIG. 1). Specifically, the test is performed as follows: a candidate substance for an anxiolytic drug is orally or intraperitoneally administered to a mouse; 30 minutes after the administration, the mouse is placed in an elevated plus-maze; and the potency of the anxiolytic effects is evaluated based on the number of entries to the open arms and a change in the times spent on the open arms.
(§1) The elevated plus-maze (EPM) consisted of two open arms (25×5 cm) and two closed arms (25×5×15 cm), which were joined to a central platform 50 cm high above the floor (see FIG. 1). Because the closed arms were surrounded by fences, a mouse could safely walk in the closed arms irrespective of their elevated position. On the other hand, because the open arms were not surrounded by fences, a mouse walking along the open arms would feel anxious that it might fall down from the elevated position. Therefore, the more time the mouse spent in the open arms, or the greater the number of entries to the open arms, the less anxious the mouse was feeling; thus, the anxiolytic activity was determined based on these indices.
(§2) A mouse was placed on a portion of the central platform facing one of the open arms, and the test was started. During a test time of 5 minutes, the cumulative time spent in the open arms (abbr.: time in open arms), the number of visits to the open arms (abbr.: visit to open arms), and the total number of visits to any of the arms (abbr.: total visits) were recorded. The percentage of the time spent in the open arms and the percentage of the number of visits to the open arms were calculated as indices of anxiety.
The data obtained from the elevated plus-maze test were represented as the means±SEM. The data were analyzed by 1-way or 2-way ANOVA, followed by the Fisher test for multiple comparisons.
(§3) Each of YL (Example 1 and Comparative Example 3), FL (Example 2), YI (Example 3), FI (Example 4), LY (Example 5), LF (Example 6), IY (Example 7), IF (Example 8), YLY (Example 9), YLQ (Example 10), LYL (Example 11), YLYEIAR (Example 12), YV (Example 13), WL (Example 14), LW (Example 15), HL (Example 16), Y (Comparative Example 1), and Y, L (Comparative Example 2) dissolved in physiological saline was administered intraperitoneally (i.p.) or orally (p.o.) to mice (n=3 to 14) in the amounts shown in each figure before the mice were placed in the elevated plus-maze. The percentage of the time spent in the open arms, the percentage of the number of visits to the open arms, and the total number of visits to the arms (total visits) were compared among groups administered each peptide or amino acid, and a control group (0 mg/kg). YL was investigated for its anxiolytic effects by the open-field test. The results are shown in FIGS. 2 to 14, FIGS. 22 to 27, and Table 3.

mice [2] = assay: Elevated plus-maze test, YL in combination with antagonists for various receptors; assay type: in vivo, mouse; conditions: in words
Source text: as §1, §2

ACE = ACE (Homo sapiens, UniProt P12821); assay: ACE inhibitory effects; assay type: biochemical; conditions: comparison of YL with IY
mice [3] = assay: Open-field test; assay type: in vivo, mouse
Description: The open-field used in this experiment was a cylindrical gray apparatus with a diameter of 60 cm and a height of 50 cm, which is divided into 25 sections with black lines. […] However, once a mouse is administered an anxiolytic drug, the time spent in the circle at the center and the number of entries thereto increase.
as §3

[4] = 0.1 mg/kg, i.p., mean ± SEM (n = 6), p < 0.05 vs cont.

Sequence of ACE (P12821 30-1306, species assumed): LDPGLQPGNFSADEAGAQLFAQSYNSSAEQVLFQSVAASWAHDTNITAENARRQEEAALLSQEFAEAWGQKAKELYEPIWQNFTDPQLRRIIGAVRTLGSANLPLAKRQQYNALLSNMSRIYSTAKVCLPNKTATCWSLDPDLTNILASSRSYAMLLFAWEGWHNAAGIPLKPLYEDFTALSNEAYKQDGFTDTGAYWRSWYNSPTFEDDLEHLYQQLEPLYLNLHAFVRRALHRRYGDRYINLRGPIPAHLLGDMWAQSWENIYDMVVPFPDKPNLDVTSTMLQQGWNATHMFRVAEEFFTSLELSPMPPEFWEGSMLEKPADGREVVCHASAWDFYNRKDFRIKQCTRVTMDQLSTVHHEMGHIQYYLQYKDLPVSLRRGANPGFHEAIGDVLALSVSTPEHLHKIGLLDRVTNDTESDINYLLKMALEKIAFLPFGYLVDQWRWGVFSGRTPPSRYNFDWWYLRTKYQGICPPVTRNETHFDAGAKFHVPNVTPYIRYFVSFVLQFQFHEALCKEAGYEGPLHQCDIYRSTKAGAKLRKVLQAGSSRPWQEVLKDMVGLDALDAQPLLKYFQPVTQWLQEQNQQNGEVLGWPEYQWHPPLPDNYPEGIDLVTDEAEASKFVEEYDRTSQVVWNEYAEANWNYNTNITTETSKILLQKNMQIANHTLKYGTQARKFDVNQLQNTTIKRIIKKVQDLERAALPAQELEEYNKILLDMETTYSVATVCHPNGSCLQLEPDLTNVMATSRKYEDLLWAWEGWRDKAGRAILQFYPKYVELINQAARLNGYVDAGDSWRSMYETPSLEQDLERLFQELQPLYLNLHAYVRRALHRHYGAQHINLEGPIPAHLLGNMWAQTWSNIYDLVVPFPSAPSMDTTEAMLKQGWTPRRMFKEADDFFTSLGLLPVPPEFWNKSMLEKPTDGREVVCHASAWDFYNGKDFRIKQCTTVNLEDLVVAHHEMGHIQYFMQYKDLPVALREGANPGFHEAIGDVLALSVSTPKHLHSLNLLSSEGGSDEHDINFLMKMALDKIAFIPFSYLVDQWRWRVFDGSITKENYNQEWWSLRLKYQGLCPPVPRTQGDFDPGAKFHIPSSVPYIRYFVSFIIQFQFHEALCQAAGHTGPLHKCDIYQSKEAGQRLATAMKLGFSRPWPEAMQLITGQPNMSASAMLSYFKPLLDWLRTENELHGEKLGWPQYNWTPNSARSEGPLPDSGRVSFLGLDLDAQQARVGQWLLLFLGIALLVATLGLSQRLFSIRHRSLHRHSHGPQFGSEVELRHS

Compound | Minimum Effective Dose (mg/kg, i.p.) (mice [1]) [mg/kg] | effect of the antagonist/inhibitor on the anxiolytic effects of the peptides of the invention (mice [2]) | further results
Ile-Tyr [IY] | 10 | – | –
Oc1ccc2c3c1O[C@H]1c4[nH]c5ccccc5c4C[C@@]4(O)[C@@H](C2)N(CC2CC2)CC[C@]314 [naltrindole] | – | not blocked | –
His-Leu [HL] | 0.1 | – | –
Phe-Leu [FL] | 0.1 | – | –
COc1ccc2c(c1)c(CC(=O)O)c(C)n2C(=O)c1ccc(Cl)cc1 [indomethacin] | – | not blocked | –
COc1ccccc1N1CCN(CC(C(=O)NC(C)(C)C)c2ccccc2)CC1 (stereo not shown) [WAY100135] | – | blocked | –
C=CCN1CC[C@]23c4c5ccc(O)c4O[C@H]2C(=O)CC[C@@]3(O)[C@H]1C5 [naloxone] | – | not blocked | –
CC(C)C[C@H](N)C(=O)O [L, Leu, reference compound] | – | – | anxiolytic effects in the elevated plus-maze experiment (in words) (mice [1]): no anxiolytic effects
YLYEIAR [peptide; Y Tyr, L Leu, E Glu, I Ile, A Ala, R Arg] | 0.3 | – | –
N[C@@H](Cc1ccc(O)cc1)C(=O)O [Y, Tyr, reference compound] | – | – | anxiolytic effects in the elevated plus-maze experiment (in words) (mice [1]): no anxiolytic effects
CCOC(=O)c1ncn2c1CN(C)C(=O)c1cc(F)ccc1-2 [flumazenil] | – | significantly blocked | –
Tyr-Leu [YL] | 0.1 | – | ACE inhibitory effects (ACE): weaker than those of IY; anxiolytic effects in the elevated plus-maze experiment (in words) (mice [1]): stronger anxiolytic effects; also recorded: at least equivalent to those of diazepam; Time in Center Circle (%) (mice [3]; [4]): 2.06 ± 0.234 %; Visits to Center Circle (%) (mice [3]; [4]): 3.02 ± 0.404 %; efficacy in the open-field test (in words) (mice [3]; mice): demonstrated its efficacy
Trp-Leu [WL] | 0.1 | – | –
OC(CCCN1CCN(c2ncc(F)cn2)CC1)c1ccc(F)cc1 (stereo not shown) [BMY14802] | – | not blocked | –
